Laboratory results as given in US5925671A, “Antitumor isocoumarins” (Pharma Mar, s.a., priority 1995, dated 1999).
Values after ≈ are worked out from the molar mass of the structure shown. Bridge positions count the residues as written; N and C are the ends. Square brackets hold non-standard residues; d marks the D form. Peptide text beside a SMILES is read from it. * marks the point of attachment. Ileψ(thiazoline)Cys = CC[C@H](C)[C@H](N)C1=N[C@H](C(=O)*)CS1; dOrn = NCCC[C@@H](N)C(=O)O

Tests used:
Assay type in all cases: cell-based
[1] = tested on: A-549 (monolayer culture of a human lung carcinoma); experiment: Antitumor activity: growth inhibition of A-549 cells, 3 days, Crystal Violet staining; conditions: for IC50: Homo sapiens, A549, 72 h, A-549, three days, 37° C., approximate IC50; for antitumour activity against A-549 human lung carcinoma: statement in words
Source text: (§1) An adapted form of the method described by Bergeron et al ("Antineoplastic an antiherpetic activity of spermidine catecholamide iron chelators" Biochem. Bioph. Res. Comm., 1984, 121(3), 848-854, and see also Schroeder et al, "Effects of Acyclic Pyrimidine Nucleoside Analogues" Med. Chem., 1981, 24 1078-1083) was used to determine the antitumor activity of the compounds of this invention. Three cultures of antitumour cell were employed. A-549 (monolayer culture of a human lung carcinoma, HT-29 (monolayer culture of a human colon carcinoma) and MEL-28 J (monolayer culture of a human melanoma).
(§2) A-549, HT-29 and MEL-28 were seeded into 16 mm wells at 2×20" cells per well in 1 ml aliquots of MEM 10FCS containing the identical concentration of drug. A separate set of cultures without drug was seeded a control growth to ensure that cells remained in exponential phase of growth. All determinations were carried out in duplicate. After three days of incubation at 37° C., 10% CO2 in 98% humid atmosphere, the wells were stained with 0.1% Crystal Violet. An approximate IC50 was determined by comparing growth in wells with drug to the growth in control wells.

[2] = tested on: HT-29 (monolayer culture of a human colon carcinoma); experiment: Antitumor activity: growth inhibition of HT-29 cells, 3 days, Crystal Violet staining; conditions: for IC50: Homo sapiens, 72 h, HT-29, three days, 37° C., approximate IC50; for antitumour activity against HT-29 human colon carcinoma: statement in words
Source text: as §1, §2

[3] = tested on: MEL-28 (monolayer culture of a human melanoma); experiment: Antitumor activity: growth inhibition of MEL-28 cells, 3 days, Crystal Violet staining; conditions: for IC50: Homo sapiens, SK-MEL-28, 72 h, MEL-28, three days, 37° C., approximate IC50; for antitumour activity against MEL-28 human melanoma: statement in words
Source text: as §1, §2

[4] = tested on: Bacillus sp. M-00-PHD-090 (CETC 4546); experiment: Antibiotic sensitivity of the producing strain (PASCO Data Management System MIC Gram Positive); conditions: 28° C., 48 hours incubation
Procedure: 5. Antibiotic Sensitivity - PASCO™ Data Management System (Difco) MIC Gram Positive
All cultures were incubated at 28° C. and records of the results were made after 48 hours incubation time. The descriptions of the culture and test results are as follows: […]

| Compound | Antibiotic sensitivity [4] | further results |
| --- | --- | --- |
| CC(C)CC(NC(=O)C(O)C(O)C(N)CC(N)=O)C1Cc2cccc(O)c2C(=O)O1 (stereo not shown) [Amicoumacin A, amicoumacin A] |  | IC50 [1]: 0.75 µg/mL (≈ 1.77 µM); antitumour activity against A-549 human lung carcinoma [1]: exhibit antitumour activity; IC50 [2]: 1.5 µg/mL (≈ 3.54 µM); antitumour activity against HT-29 human colon carcinoma [2]: exhibit antitumour activity; IC50 [3]: 0.15 µg/mL (≈ 0.354 µM); antitumour activity against MEL-28 human melanoma [3]: exhibit antitumour activity |
| CC(C)CC(N)C(O)C(O)C(=O)NC(CC(C)C)C1Cc2cccc(O)c2C(=O)O1 (stereo not shown) [PM-94128] |  | IC50 [1]: 0.02 µg/mL (≈ 0.0473 µM); antitumour activity against A-549 human lung carcinoma [1]: exhibit antitumour activity; IC50 [2]: 0.02 µg/mL (≈ 0.0473 µM); antitumour activity against HT-29 human colon carcinoma [2]: exhibit antitumour activity; IC50 [3]: 0.02 µg/mL (≈ 0.0473 µM); antitumour activity against MEL-28 human melanoma [3]: exhibit antitumour activity |
| NCC[C@H](O)C(=O)N[C@@H]1C[C@H](N)[C@@H](O[C@H]2O[C@H](CN)[C@@H](O)[C@H](O)[C@H]2O)[C@H](O)[C@H]1O[C@H]1O[C@H](CO)[C@@H](O)[C@H](N)[C@H]1O [amikacin] | Sensitive |  |
| CC1(C)S[C@@H]2[C@H](NC(=O)[C@H](N)c3ccccc3)C(=O)N2[C@H]1C(=O)O [ampicillin] | Sensitive |  |
| CC[C@H](C)[C@H](N)C1=N[C@H](C(=O)N[C@@H](CC(C)C)C(=O)N[C@H](CCC(=O)O)C(=O)N[C@H](C(=O)N[C@H]2CCCCNC(=O)[C@H](CC(N)=O)NC(=O)[C@@H](CC(=O)O)NC(=O)[C@H](Cc3cnc[nH]3)NC(=O)[C@@H](Cc3ccccc3)NC(=O)[C@H]([C@@H](C)CC)NC(=O)[C@@H](CCCN)NC2=O)[C@@H](C)CC)CS1 [bacitracin] ({Ileψ(thiazoline)Cys}-L[dE]IK[dOrn]I[dF]H[dD]N; lactam 4-C) | resistant |  |
| N[C@@H](C(=O)N[C@@H]1C(=O)N2C(C(=O)O)=C(Cl)CS[C@H]12)c1ccccc1 [ceflactor] | Sensitive |  |
| CO[C@@]1(NC(=O)Cc2cccs2)C(=O)N2C(C(=O)O)=C(COC(N)=O)CS[C@@H]21 [cefoxitin] | Sensitive |  |
| CO/N=C(\C(=O)N[C@@H]1C(=O)N2C(C(=O)O)=C(COC(N)=O)CS[C@H]12)c1ccco1 [cefuroxime] | Sensitive |  |
| CC[C@H]1OC(=O)[C@H](C)[C@@H](O[C@H]2C[C@@](C)(OC)[C@@H](O)[C@H](C)O2)[C@H](C)[C@@H](O[C@@H]2O[C@H](C)C[C@H](N(C)C)[C@H]2O)[C@](C)(O)C[C@@H](C)C(=O)[C@H](C)[C@@H](O)[C@]1(C)O [erythromycin] | Sensitive |  |
| C[C@@H]1O[C@@H]1P(=O)(O)O [fosfomicin] | Sensitive |  |
| CCn1cc(C(=O)O)c(=O)c2ccc(C)nc21 [nalidixic acid] | Sensitive |  |
| CCn1cc(C(=O)O)c(=O)c2cc(F)c(N3CCNCC3)cc21 [norfloxacin] | Sensitive |  |
| CO[C@@H]1[C@@H](OC(N)=O)[C@@H](O)[C@H](Oc2ccc3c(O)c(NC(=O)c4ccc(O)c(CC=C(C)C)c4)c(=O)oc3c2C)OC1(C)C [novobiocin] | Sensitive |  |
| Cc1onc(-c2ccccc2)c1C(=O)N[C@@H]1C(=O)N2[C@@H]1SC(C)(C)[C@@H]2C(=O)O [oxacillin] | Sensitive |  |
| CC1(C)S[C@@H]2[C@H](NC(=O)Cc3ccccc3)C(=O)N2[C@H]1C(=O)O [penicillin] | Sensitive |  |
| CO[C@H]1/C=C/O[C@@]2(C)Oc3c(C)c(O)c4c(O)c(c(/C=N/N5CCN(C)CC5)c(O)c4c3C2=O)NC(=O)/C(C)=C\C=C\[C@H](C)[C@H](O)[C@@H](C)[C@@H](O)[C@@H](C)[C@H](OC(C)=O)[C@@H]1C [rifampicin] | Sensitive |  |
| [H]/N=C(/N)N[C@H]1[C@H](O)[C@@H](O)[C@H](O[C@@H]2O[C@@H](C)[C@](O)(C=O)[C@H]2O[C@@H]2O[C@@H](CO)[C@H](O)[C@@H](O)[C@@H]2NC)[C@@H](N/C(N)=N\[H])[C@@H]1O [streptomycin] | Sensitive |  |
| CN(C)C1C(=O)C(C(N)=O)=C(O)C2(O)C(=O)C3=C(O)c4c(O)cccc4C(C)(O)C3CC12 (stereo not shown) [tretracycline] | Sensitive |  |
| CN[C@H](CC(C)C)C(=O)N[C@H]1C(=O)N[C@@H](CC(N)=O)C(=O)N[C@H]2C(=O)N[C@H]3C(=O)N[C@H](C(=O)N[C@H](C(=O)O)c4cc(O)cc(O)c4-c4cc3ccc4O)[C@H](O)c3ccc(c(Cl)c3)Oc3cc2cc(c3O[C@@H]2O[C@H](CO)[C@@H](O)[C@H](O)[C@H]2O[C@H]2C[C@](C)(N)[C@H](O)[C@H](C)O2)Oc2ccc(cc2Cl)[C@H]1O [vancomycin] | resistant |  |
| gentamicin | Sensitive |  |
| teicoplanin | resistant |  |
